Reference: patent US20210253598A1, “ARYL ANNULATED MACROCYCLIC INDOLE DERIVATIVES” (priority 2017, published 2021)
“And” between values parts separate entries of the source, which are not always exact repeats. Identical values can stand only once. Like-named read-outs stand apart in the source and are kept apart here.

Experiments:
SUDHL5 [1] = test: Induction of caspase-3/7 activity in SUDHL5 cells (Assay 4); format: cell-based; settings: SUDHL5, 3 hours treatment, Caspase-Glo 3/7, median, read-out: Caspase SUDHL5 [M] (median)
Method: (§1) Induction of Caspase-3/7 Activity Upon Treatment of Cells with Selected Compounds
(§2) The BH3-domain of MCL-1 sequesters pro-apoptotic proteins, thereby inhibiting apoptosis. In contrast, MCL-1 inhibitors are expected to antagonize this effect leading to an increase in apoptosis, which can be determined by measuring the activity of caspase-3/7.
(§3) The activity of caspase-3/7 was determined in DLBCL (Diffuse large B-cell lymphoma) cell lines (SUDHL5 and SUDHL10) upon treatment with different compounds, using the Caspase-Glo® 3/7 reagent from Promega (G8092).
(§4) As a control, medium without cells was also added to the plate. Cells were incubated in a humidified incubator at 37° C. overnight.
(§5) Rim wells were excluded. The cells were incubated for 3 hours in a humidified incubator at 37° C. After this incubation, 30 μl of Caspase-Glo® 3/7 reagent (Promega G8092) was added to each well using the Multidrop Combi Reagent Dispenser, followed by 1 hour incubation at 37° C. Finally, luminescence was read at 0.1 ms, with a gain of 3000 using the PHERAstar FS microplate reader (BMG Labtech).
(§6) For the evaluation of the results, the background measured with “medium-only” was subtracted from all other values. Then, the values were normalized to DMSO-only treated cells (every value was divided by the mean of the DMSO control).

SUDHL10 [2] = test: Induction of caspase-3/7 activity in SUDHL10 cells (Assay 4); format: cell-based; settings: SUDHL10, 3 hours treatment, Caspase-Glo 3/7, median, read-out: Caspase SUDHL10 [M] (median)
Method: as §1, §2, §3, §4, §5, §6

SUDHL5 [3] = test: Induction of cytotoxicity in SUDHL5 cells, CellTiter-Glo (Assay 6); format: cell-based; settings: Homo sapiens, SU-DHL-5, 5 h, SUDHL5, 5 hours incubation, median, read-out: Cytotox SUDHL5 [M] (median)
Method: (§7) Induction of Cytotoxicity Upon Treatment of Cells with Selected Compounds
(§8) In principle, compounds that induce apoptosis will concomitantly induce cell cytotoxicity. Therefore, cytotoxicity assays were run in parallel in SUDHL5 and SUDHL10 cells.
(§9) As a control, medium without cells was also added to the plate. Cells were incubated in a humidified incubator at 37° C. overnight. […] Rim wells were excluded. The cells were incubated for 5 hours in a humidified incubator at 37° C. After this incubation, 30 μl of CellTiter-Glo® Luminescent Cell Viability reagent (Promega, G7573) was added to each well using the Multidrop Combi Reagent Dispenser, followed by 15 minutes incubation on a shaker at room temperature. Finally, luminescence was read at 0.1 ms, with a gain of 3000 using the PHERAstar FS microplate reader (BMG Labtech).

SUDHL10 [4] = test: Induction of cytotoxicity in SUDHL10 cells, CellTiter-Glo (Assay 6); format: cell-based; settings: SUDHL10, 5 hours incubation, median, read-out: Cytotox SUDHL10 [M] (median)
Method: as §7, §8, §9

SUDHL5 [5] = test: Anti-proliferative effect in SUDHL5 cells, CellTiter-Glo (Assay 7); format: cell-based; settings: SUDHL5, 72 hours incubation, CellTiter-Glo, median, read-out: Antiproli SUDHL5 [M] (median)
Method: (§10) Assessment of the Anti-Proliferative Effect of Compounds in Different Cell Lines
(§11) The impact of compounds on the proliferation of different cell lines was assessed using the CellTiter-Glo® Luminescent Cell Viability reagent from Promega (G7573).
(§12) In parallel, cells were plated in a reference (day 0) plate for time zero determination. Cells were incubated in a humidified incubator at 37° C. overnight.
(§13) Rim wells were excluded. The cells were incubated for 72 hours in a humidified incubator at 37° C. The day 0 plate was measured by adding 30 μL/well of CTG solution (CellTiter-Glo® Luminescent Cell Viability reagent, Promega G7573) to time zero wells in the reference plate followed by a 10 minutes incubation and luminescence reading at 0.1 ms. using the PHERAstar FS microplate reader (BMG Labtech).
(§14) After 72 hours incubation, the treated plates were measured in the same way as the day 0 plate mentioned above. The Bella DRC Master Sheet was used to calculate IC50s, with CI=day 0 values and C0=DMSO control values.

MV-4-11 = test: Anti-proliferative effect in MV-4-11 cells, CellTiter-Glo (Assay 7); format: cell-based; settings: MV-4-11, 72 hours incubation, CellTiter-Glo, several values per example, read-out: Antiproli MV-4-11
Method: as §10, §11, §12, §13, §14

A2780 = test: Anti-proliferative effect in A2780 cells, CellTiter-Glo (Assay 7); format: cell-based; settings: A2780, 72 hours incubation, CellTiter-Glo, several values per example, read-out: Antiproli A2780
Method: as §10, §11, §12, §13, §14

MCL-1 = MCL-1 (Homo sapiens, UniProt Q07820, K194A/K197A/R201A); test: Protein-protein interaction assay MCL-1/Noxa BH3 peptide, TR-FRET (MCL-1 assay, Assay 1); format: binding; settings: MBP-MCL-1 / Noxa BH3 peptide
MCL-1, sequence (Q07820 173-321 K194A/K197A/R201A, looked up): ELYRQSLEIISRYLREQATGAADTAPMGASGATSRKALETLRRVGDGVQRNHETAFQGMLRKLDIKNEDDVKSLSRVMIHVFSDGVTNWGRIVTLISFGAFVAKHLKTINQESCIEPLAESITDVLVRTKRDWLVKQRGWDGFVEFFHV
Method: The dose-dependent inhibition by the compounds described in this invention of the interaction between MCL-1 and the BH3 domain of Noxa (both human) was determined using a steady state binding competition assay with time-resolved fluorescence energy transfer (TR-FRET) readout. For that purpose MCL-1 (amino acids 173-321, N-terminal fused to Maltose Binding Protein (MBP), SEQ ID 1) and a synthetic Noxa BH3-derived peptide of sequence Biotin-PEG2-PEG2-PAELEVE-Nva-[…]-amide (SEQ ID 2) served as protein receptor and tracer ligand respectively. The MBP-MCL-1 was purchased from Beryllium (Bedford, Mass., USA). The expression and purification of this protein construct has been described elsewhere (DOI:10.1371/journal.pone.0125010). The Noxa BH3-derived peptide can be obtained from e.g. Biosyntan (Berlin, Germany).
For that, 100-fold concentrated DMSO solutions were prepared by serial dilutions (1:3.4) of a 2 mM stock solution in a clear, 384-well microtiter plate (Greiner Bio-One, Frickenhausen, Germany). From there, 50 nl were transferred in a dark test plate (Greiner Bio-One, Frickenhausen, Germany). The assay was initiated by addition of 2 μl of a 2,5-fold concentrated MBP-MCL-1 solution (usually for a 1 nM end concentration in 5 μl reaction volume) in aqueous assay buffer [50 mM Tris/HCl pH 7, 100 mM sodium chloride (NaCl), 50 mM potassium fluoride (KF), 0.005% Tween-20, 2 mM DTT, 0.1% bovine gamma globulin (BGG)] to the compounds in the assay plate. This was followed by a 10-minute incubation step at 22° C. for pre-equilibration of the putative complex between MBP-MCL-1 and the compounds.
The mixture was incubated in the dark for one hour at 22° C. and then overnight at 4° C. The formation of MCL-1/Noxa complexes was determined by measuring the resonance energy transfer of the anti-MBP-Eu-cryptate antibody to the streptavidin-XL665 present in the reaction.
The resulting data (ratio) were normalized, taking 0% inhibition as the mean value of control measurements (usually 32 data points) where all reagents were included. In this case 50 nl DMSO were used instead of compounds. […] IC50 values were determined by regression analysis based on a 4 parameter equation (minimum, maximum, IC50, Hill; Y=Max+(Min−Max)/(1+(X/IC50)^Hill) using the Screener Software (Genedata).

Cc1c2c(nn1C)CNCc1ccccc1Cn1c(C(=O)O)c(CCCOc3cccc4ccccc34)c3cccc-2c31 (racemic) [Example 11, (rac)-4,5-Dimethyl-17-[3-(naphthalen-1-yloxy)propyl]-7,8,9,14-tetrahydro-5H-indolo[1,7-bc]pyrazolo[4,3-e][2,8]benzodiazacycloundecine-16-carboxylic Acid]
EC50 (SUDHL5 [1]; Homo sapiens, SU-DHL-5, 3 h): 5.6e-06 M
EC50 (SUDHL10 [2]; Homo sapiens, SU-DHL10, 3 h): 1.6e-05 M
IC50 (SUDHL5 [3]): 5.6e-06 M
IC50 (SUDHL10 [4]; Homo sapiens, SU-DHL10, 5 h): 1.5e-05 M
IC50 (SUDHL5 [5]; Homo sapiens, SU-DHL-5, 72 h): 7.2e-06 M
IC50 (MV-4-11; Homo sapiens, MV4-11, 72 h): 7.59 µM
IC50 (MV-4-11): 7.42 µM
IC50 (A2780): 12.2 µM
IC50 (A2780; Homo sapiens, A2780, 72 h): 11.8 µM

Cc1c2c(nn1C)CN(C)Cc1ccccc1Cn1c(C(=O)O)c(CCCOc3cccc4ccccc34)c3cccc-2c31 (racemic) [Example 14, (rac)-4,5,8-Trimethyl-17-[3-(naphthalen-1-yloxy)propyl]-7,8,9,14-tetrahydro-5H-indolo[1,7-bc]pyrazolo[4,3-e][2,8]benzodiazacycloundecine-16-carboxylic Acid]
IC50 (MCL-1; MCL-1 Assay [M] (median)): 5.2e-09 M
EC50 (SUDHL5 [1]; Homo sapiens, SU-DHL-5, 3 h): 2.7e-06 M
EC50 (SUDHL10 [2]; Homo sapiens, SU-DHL10, 3 h): 7.6e-06 M
IC50 (SUDHL5 [3]): 3e-06 M
IC50 (SUDHL10 [4]; Homo sapiens, SU-DHL10, 5 h): 7e-06 M
IC50 (SUDHL5 [5]; Homo sapiens, SU-DHL-5, 72 h): 3.4e-06 M
IC50 (MV-4-11; Homo sapiens, MV4-11, 72 h): 6.41 µM
IC50 (A2780; Homo sapiens, A2780, 72 h): 17.5 µM

COc1cc(CNC(=O)N2Cc3ccccc3Cn3c(C(=O)O)c(CCCOc4cccc5ccccc45)c4cccc(c43)-c3c(nn(C)c3C)C2)cc(OC)c1OC (racemic) [Example 20, (rac)-4,5-Dimethyl-17-[3-(naphthalen-1-yloxy)propyl]-8-[(3,4,5-trimethoxybenzyl)carbamoyl]-7,8,9,14-tetrahydro-5H-indolo[1,7-bc]pyrazolo[4,3-e][2,8]benzodiazacycloundecine-16-carboxylic Acid]
IC50 (MCL-1; MCL-1 Assay [M] (median)): 1.8e-07 M
EC50 (SUDHL5 [1]; Homo sapiens, SU-DHL-5, 3 h): > 3.3e-05 M
EC50 (SUDHL10 [2]; Homo sapiens, SU-DHL10, 3 h): > 3.3e-05 M
IC50 (SUDHL5 [3]): > 3.3e-05 M
IC50 (SUDHL10 [4]; Homo sapiens, SU-DHL10, 5 h): > 3.3e-05 M
IC50 (SUDHL5 [5]; Homo sapiens, SU-DHL-5, 72 h): 1.2e-05 M
IC50 (MV-4-11; Homo sapiens, MV4-11, 72 h): 10.8 µM
IC50 (A2780; Homo sapiens, A2780, 72 h): 13.7 µM

Cc1c2c(nn1C)CN(C(=O)CC1CCOCC1)Cc1ccccc1Cn1c(C(=O)O)c(CCCOc3cccc4ccccc34)c3cccc-2c31 (racemic) [Example 21, (rac)-4,5-Dimethyl-17-[3-(naphthalen-1-yloxy)propyl]-8-(tetrahydro-2H-pyran-4-ylacetyl)-7,8,9,14-tetrahydro-5H-indolo[1,7-bc]pyrazolo[4,3-e][2,8]benzodiazacycloundecine-16-carboxylic Acid]
IC50 (MCL-1; MCL-1 Assay [M] (median)): 3.5e-08 M
EC50 (SUDHL5 [1]; Homo sapiens, SU-DHL-5, 3 h): 2e-05 M
EC50 (SUDHL10 [2]; Homo sapiens, SU-DHL10, 3 h): > 3.3e-05 M
IC50 (SUDHL5 [3]): 1.3e-05 M
IC50 (SUDHL10 [4]; Homo sapiens, SU-DHL10, 5 h): > 3.3e-05 M
IC50 (SUDHL5 [5]; Homo sapiens, SU-DHL-5, 72 h): 1.1e-05 M
IC50 (MV-4-11; Homo sapiens, MV4-11, 72 h): 8.33 µM
IC50 (A2780; Homo sapiens, A2780, 72 h): 11.9 µM

Cc1c2c(nn1C)CN(C(=O)NC1CCOCC1)Cc1ccccc1Cn1c(C(=O)O)c(CCCOc3cccc4ccccc34)c3cccc-2c31 (racemic) [Example 24, (rac)-4,5-Dimethyl-17-[3-(naphthalen-1-yloxy)propyl]-8-(tetrahydro-2H-pyran-4-ylcarbamoyl)-7,8,9,14-tetrahydro-5H-indolo[1,7-bc]pyrazolo[4,3-e][2,8]benzodiazacycloundecine-16-carboxylic Acid]
IC50 (MCL-1; MCL-1 Assay [M] (median)): 5.3e-08 M
EC50 (SUDHL5 [1]; Homo sapiens, SU-DHL-5, 3 h): > 3.3e-05 M
EC50 (SUDHL10 [2]; Homo sapiens, SU-DHL10, 3 h): > 3.3e-05 M
IC50 (SUDHL5 [3]): > 3.3e-05 M
IC50 (SUDHL10 [4]; Homo sapiens, SU-DHL10, 5 h): > 3.3e-05 M
IC50 (SUDHL5 [5]; Homo sapiens, SU-DHL-5, 72 h): > 3.3e-05 M
IC50 (MV-4-11; Homo sapiens, MV4-11, 72 h): > 33 µM
IC50 (A2780; Homo sapiens, A2780, 72 h): > 33 µM

Cc1c2c(nn1C)COCc1ccccc1Cn1c(C(=O)O)c(CCCOc3cccc4ccccc34)c3ccc(F)c-2c31 (racemic) [Example 67, (rac)-15-Fluoro-13,14-dimethyl-1-(3-(naphthalen-1-yloxy)propyl)-4,9,11,13-tetrahydrobenzo[3,4]pyrazolo[4′,3′:9,10][1,6]oxaazacycloundecino[8,7,6-hi]indole-2-carboxylic Acid]
EC50 (SUDHL5 [1]; Homo sapiens, SU-DHL-5, 3 h): 2.2e-06 M
EC50 (SUDHL10 [2]; Homo sapiens, SU-DHL10, 3 h): 5.9e-06 M
IC50 (SUDHL5 [3]): 1.8e-06 M
IC50 (SUDHL10 [4]; Homo sapiens, SU-DHL10, 5 h): 4.9e-06 M
IC50 (SUDHL5 [5]; Homo sapiens, SU-DHL-5, 72 h): 2.4e-06 M
IC50 (MV-4-11; Homo sapiens, MV4-11, 72 h): 3.08 µM
IC50 (A2780; Homo sapiens, A2780, 72 h): 20.5 µM

CCc1c2c(nn1C)COCc1ccccc1Cn1c(C(=O)O)c(CCCOc3cccc4ccccc34)c3ccc(F)c-2c31 (racemic) [Example 70, (rac)-14-Ethyl-15-fluoro-13-methyl-1-(3-(naphthalen-1-yloxy)propyl)-4,9,11,13-tetrahydrobenzo[3,4]pyrazolo[4′,3′:9,10][1]oxa[6]azacycloundecino[8,7,6-hi]indole-2-carboxylic Acid]
IC50 (MCL-1; median, read-out: MCL-1 Assay [M] (median)): 2.1e-09 M
EC50 (SUDHL5 [1]): 1.6e-06 M
EC50 (SUDHL10 [2]): 8.6e-06 M
IC50 (SUDHL10 [4]): 6.1e-06 M
IC50 (SUDHL5 [5]): 2.2e-06 M
IC50 (MV-4-11): 2.41 µM and 2.27 µM
IC50 (A2780): 22.8 µM and 22.5 µM

Cc1c2c(nn1C)COCc1ncccc1Cn1c(C(=O)O)c(CCCOc3cccc4ccccc34)c3cccc-2c31 [Example 07]
IC50 (MV-4-11): 5.15 µM and 5.5 µM
IC50 (A2780): 29.6 µM and > 33 µM
